Results published in article PMC11530130, “Peripherally restricted PICK1 inhibitor mPD5 ameliorates pain behaviors in murine inflammatory and neuropathic pain models” (JCI Insight, 2024).
Several values for one entry are separate records, joined by “and”; a condition that tells them apart may be missing. Equal entries are not always repeated.

System: mice, CFA model of inflammatory pain
Test: CFA model of inflammatory pain, von Frey, s.c. administration
Format: in vivo, mouse
Settings: for paw withdrawal threshold (von Frey), individual mice / von Frey paw withdrawal threshold, ipsilateral paw (Fig S7A) / von Frey paw withdrawal threshold, contralateral paw (Fig S7A): listed as myr; for von Frey paw withdrawal threshold, ipsilateral paw (Fig S7A) / von Frey paw withdrawal threshold, contralateral paw (Fig S7A): CFA mice, individual animals; for von Frey paw withdrawal threshold, ipsilateral paw (Fig S7A): group 10; for von Frey paw withdrawal threshold, contralateral paw (Fig S7A): group 10_contra; for effect on mechanical hypersensitivity (PWT): CFA, male mice
Procedure: Unless otherwise specified, wild type C57BL/6NRj mice (male and female, aged eight-weeks at the beginning of experiment) were used (Janvier, France). Animals were allowed at least seven days of habituation to the animal facility before initiation of experiment. Mice were group-housed in a temperature-controlled room, maintained on a 12/12hour light/dark cycle (lights on at 6 A.M) with free access to standard rodent chow (Altromin 1342 (Brogaarden, […]
Drug administration and dosing for animal experiments.
All compounds were diluted in PBS or saline (depending on control) and administered through different routes i.t. (7 μL/mouse)), i.p. (10 μL/g) or s.c. (10 μL/g)) as indicated. Doses of mPD5 were based on previous studies with TPD5 (6) with a subcutaneous dose-range included in the CFA studies further guiding dose selection for SNI, STZ and CIBP studies. Pregabalin dose was chosen based on previous experience from Phenotype Expertise (Marseilles, France). In the CIBP model, a dose of […] morphine was chosen to avoid hyperactivity, though known to provide only partial pain relief in this model. In remaining experiments, 5 mg/kg morphine was chosen, known to provide full pain relief, except for the conditioned place preference experiment, where 10 mg/kg was used instead in accordance with literature. […]
µL of IS1 (internal standard in MeOH (Labetalol & tolbutamide & Verapamil & dexamethasone & glyburide & Celecoxib 100 ng/mL for each)) and the mixture was vortexed for 10 min at 800 rpm and centrifuged for 15 min at 3220 × g at 4 ℃. An aliquot of 65 µL supernatant was transferred to a clean 96-well plate and centrifuged for 5 min at 3220 × g at 4 ℃, then the supernatant was directly injected for LC-MS/MS analysis. Plasma half-lives were determined from three points in the elimination phase. In a separate experiment, biodistribution was assessed (plasma, CSF, spinal cord, whole brain) at two hours after single dose of 10 µmol/kg or one hour after last injection in the repeated administration paradigm (10 µmol/kg followed by four s.c. administrations of 2 µmol/kg with one hour between). At these times, plasma levels were similar between the two paradigms. Plasma, CSF, and tissue samples (kept at 4 ℃) were processed and analysed as described above.
Concentration 10 µmol/kg: Wild type mice were habituated to the experimental room for a minimum of 60 min before initiation of the experiment. Female and male mice were run on separate days. Mice were injected s.c. with 10 μmol/kg mPD5 or sterile PBS directly before being placed in open field boxes (40 cm x 40 cm x 80 cm) for 2.5 hours with up to four mice in boxes at any one time. A video camera placed above the open field recorded the animals’ behaviour and Ethovision XT 13 (Noldus) was used to track the distance travelled by the […]
Concentration 30 + 50 µmol/kg: Animals were habituated to the experimental room for a minimum of 60 min before initiation of the experiment. At initiation of experiment, the mice (all male) were injected subcutaneously (s.c.) with mPD5 (30 or 50 μmol/kg, pH adjusted to approximately 7 with 5 M NaOH) or 0.9 % saline (B.Braun, Germany) and left in their home cage for 60 min. After exactly one hour, the mice were placed in an open field (40 cm x 40 cm x 80 cm) for 60 min. A video camera placed above the open field recorded the animals’ […]
animal. The experiment was run in cohort with Figure 2B+C of (9)).
Induction of inflammatory pain (CFA model).
Injury was induced on the right hind paw, whereas the contralateral left hind paw was used as internal control of the C57BL/6J male and female mice (Janvier, France). The inflammatory pain was induced by injection of 50 μL undiluted Complete Freund’s Adjuvant (CFA) (F5881, Sigma) unilaterally into the intraplantar surface of the right hind paw, whereas control mice were injected with the same amount of 0.9 % saline (B. Braun, Germany). All intraplantar injections were performed with an insulin needle (0.3 mL BD Micro-Fine) while the animal […]

[1] = 1 hr post myr injection on day 2
[2] = 5 hrs post myr injection on day 2
[3] = 25 hrs post myr injection on day 2
[4] = day 2 after CFA injection (before dosing)

## CCCCCCCCCCCCCC(=O)N(CCOCCOCCC(=O)N[C@@H](Cc1c[nH]cn1)C(=O)N[C@@H](Cc1c[nH]c2ccccc12)C(=O)N[C@@H](CC(C)C)C(=O)N[C@@H](CCCCN)C(=O)N[C@H](C(=O)O)C(C)C)CCOCCOCCC(=O)N[C@@H](Cc1c[nH]cn1)C(=O)N[C@@H](Cc1c[nH]c2ccccc12)C(=O)N[C@@H](CC(C)C)C(=O)N[C@@H](CCCCN)C(=O)N[C@H](C(=O)O)C(C)C [mPD5, myristoyl-NPEG4-(HWLKV)2]
CFA day 2, s.c. 50 μmol/kg, contralateral paw, 1 hr post injection
  paw withdrawal threshold (von Frey), individual mice: 1 (3×) and 2 (3×)
CFA day 2, s.c. 50 μmol/kg, contralateral paw, 5 hrs post injection
  paw withdrawal threshold (von Frey), individual mice: 1 (3×) and 1.4 (3×)
CFA day 2, s.c. 50 μmol/kg, contralateral paw, 24 hrs post injection
  paw withdrawal threshold (von Frey), individual mice: 1.4 (2×) and 2 (3×) and 1
CFA day 2, s.c. 50 μmol/kg, contralateral paw, 262 hrs post injection
  paw withdrawal threshold (von Frey), individual mice: 1 and 2 (2×) and 1.4 (3×)
CFA day 2, s.c. 50 μmol/kg, ipsilateral paw, 1 hr post injection
  paw withdrawal threshold (von Frey), individual mice: 0.4 and 1.4 and 2 (2×) and 1 (2×)
CFA day 2, s.c. 50 μmol/kg, ipsilateral paw, 5 hrs post injection
  paw withdrawal threshold (von Frey), individual mice: 0.6 and 0.4 (2×) and 1 and 0.16 (2×)
CFA day 2, s.c. 50 μmol/kg, ipsilateral paw, 24 hrs post injection
  paw withdrawal threshold (von Frey), individual mice: 0.07 and 0.16 (2×) and 0.4 (3×)
CFA day 2, s.c. 50 μmol/kg, ipsilateral paw, 262 hrs post injection
  paw withdrawal threshold (von Frey), individual mice: 1 (2×) and 1.4 (3×) and 0.6
CFA dose range, s.c. 2 μmol/kg, contralateral paw, 1 hr post injection
  paw withdrawal threshold (von Frey), individual mice: 2 (4×) and 1.4
CFA dose range, s.c. 2 μmol/kg, ipsilateral paw, 1 hr post injection
  paw withdrawal threshold (von Frey), individual mice: 0.6 and 0.16 and 1 and 1.4 and 0.4
CFA dose range, s.c. 2 μmol/kg, ipsilateral paw, 5 hrs post injection
  paw withdrawal threshold (von Frey), individual mice: 0.4 and 0.16 (3×) and 0.6
CFA dose range, s.c. 10 μmol/kg, contralateral paw, 1 hr post injection
  paw withdrawal threshold (von Frey), individual mice: 1.4 (4×) and 2 (2×)
CFA dose range, s.c. 10 μmol/kg, contralateral paw, 5 hrs post injection
  paw withdrawal threshold (von Frey), individual mice: 1 (2×) and 1.4
CFA dose range, s.c. 10 μmol/kg, ipsilateral paw, 1 hr post injection
  paw withdrawal threshold (von Frey), individual mice: 0.4 and 0.6 (2×) and 1.4 and 0.16 and 1
CFA dose range, s.c. 10 μmol/kg, ipsilateral paw, 5 hrs post injection
  paw withdrawal threshold (von Frey), individual mice: 0.16 and 0.6 (2×) and 1.4
CFA dose range, s.c. 50 μmol/kg, contralateral paw, 1 hr post injection
  paw withdrawal threshold (von Frey), individual mice: 1.4 (4×) and 2
CFA dose range, s.c. 50 μmol/kg, contralateral paw, 5 hrs post injection
  paw withdrawal threshold (von Frey), individual mice: 2 (3×) and 1.4 (2×)
CFA dose range, s.c. 50 μmol/kg, ipsilateral paw, 1 hr post injection
  paw withdrawal threshold (von Frey), individual mice: 1.4 (3×) and 0.6 (2×)
CFA dose range, s.c. 50 μmol/kg, ipsilateral paw, 5 hrs post injection
  paw withdrawal threshold (von Frey), individual mice: 0.6 and 1 (2×)
[1]
  von Frey paw withdrawal threshold, ipsilateral paw (Fig S7A): 0.6 (2×) and 1 (3×) and 0.4
  von Frey paw withdrawal threshold, contralateral paw (Fig S7A): 1 (4×) and 1.4 and 0.6
[2]
  von Frey paw withdrawal threshold, ipsilateral paw (Fig S7A): 0.16 (2×) and 0.07 (2×) and 0.4 and 0.6
  von Frey paw withdrawal threshold, contralateral paw (Fig S7A): 1 (4×) and 0.6 and 1.4
[3]
  von Frey paw withdrawal threshold, ipsilateral paw (Fig S7A): 0.07 (4×) and 0.16 (2×)
  von Frey paw withdrawal threshold, contralateral paw (Fig S7A): 0.6 (2×) and 1 (4×)
Baseline before CFA injection
  von Frey paw withdrawal threshold, ipsilateral paw (Fig S7A): 1 and 1.4 (5×)
  von Frey paw withdrawal threshold, contralateral paw (Fig S7A): 1.4 (5×) and 1
[4]
  von Frey paw withdrawal threshold, ipsilateral paw (Fig S7A): 0.07 (4×) and 0.16 (2×)
  von Frey paw withdrawal threshold, contralateral paw (Fig S7A): 1 (3×) and 0.6 (2×) and 1.4
s.c. 50 μmol/kg, 5 hours after injection
  effect on mechanical hypersensitivity (PWT): significant reduction of mechanical hypersensitivity
s.c. 2, 10 and 50 μmol/kg (all doses), 1 hour after administration
  effect on mechanical hypersensitivity (PWT): significant reversion of mechanical hypersensitivity
Single s.c. 50 μmol/kg, 1 hour after injection
  effect on mechanical hypersensitivity (PWT): reverted hypersensitivity
Female mice, s.c. 10 μmol/kg
  reversion of CFA-induced mechanical hypersensitivity in female mice: confirmed
